Patent publication US8530487B1 (priority 2009, dated 2013)

What follows are compounds tested against human TRPA1 (Homo sapiens, UniProt O75762) (assay: cell-based). Settings: not given.
Chain of human TRPA1 (O75762 whole entry): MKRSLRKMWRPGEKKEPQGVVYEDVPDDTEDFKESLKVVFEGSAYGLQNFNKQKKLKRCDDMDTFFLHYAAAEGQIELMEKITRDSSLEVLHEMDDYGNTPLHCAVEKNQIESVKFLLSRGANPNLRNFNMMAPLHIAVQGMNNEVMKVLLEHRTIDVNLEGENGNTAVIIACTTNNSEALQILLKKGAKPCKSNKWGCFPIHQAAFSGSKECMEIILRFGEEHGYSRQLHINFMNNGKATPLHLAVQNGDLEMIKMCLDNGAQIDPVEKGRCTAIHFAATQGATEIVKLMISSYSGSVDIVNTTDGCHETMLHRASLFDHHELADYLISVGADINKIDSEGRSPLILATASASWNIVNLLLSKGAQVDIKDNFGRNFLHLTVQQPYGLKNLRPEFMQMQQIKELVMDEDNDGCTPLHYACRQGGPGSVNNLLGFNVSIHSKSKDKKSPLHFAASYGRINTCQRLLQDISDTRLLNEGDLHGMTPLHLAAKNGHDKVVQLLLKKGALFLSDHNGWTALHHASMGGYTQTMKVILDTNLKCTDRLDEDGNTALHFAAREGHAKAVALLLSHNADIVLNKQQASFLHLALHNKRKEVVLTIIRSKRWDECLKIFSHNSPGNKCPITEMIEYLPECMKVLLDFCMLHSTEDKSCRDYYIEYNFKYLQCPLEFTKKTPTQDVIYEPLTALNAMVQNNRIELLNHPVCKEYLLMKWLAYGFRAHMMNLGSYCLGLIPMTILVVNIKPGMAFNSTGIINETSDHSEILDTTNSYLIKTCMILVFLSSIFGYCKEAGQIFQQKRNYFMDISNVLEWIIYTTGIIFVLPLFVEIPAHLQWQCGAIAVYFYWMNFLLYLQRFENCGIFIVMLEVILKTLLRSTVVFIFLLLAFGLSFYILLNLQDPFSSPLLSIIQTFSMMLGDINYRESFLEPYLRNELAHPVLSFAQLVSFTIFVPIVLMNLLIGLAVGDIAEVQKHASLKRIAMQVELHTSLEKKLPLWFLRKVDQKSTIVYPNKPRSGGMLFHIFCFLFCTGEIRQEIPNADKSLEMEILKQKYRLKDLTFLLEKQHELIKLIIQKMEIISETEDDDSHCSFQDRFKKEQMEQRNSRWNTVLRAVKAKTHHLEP

First: N#Cc1ccc(C2NC(=S)NC3=C2C(=O)c2ccccc23)cc1 (centres unmarked) [Compound 35]
Second: O=C1C2=C(NC(=S)NC2c2ccccc2)c2ccc(O)cc21 (centres unmarked) [Compound 203]
The IC50 of the first is lower: 500 to 1000 nM for the first, greater than 1000 nM for the second.

First: COc1cccc(C2NC(=O)NC3=C2C(=O)c2ccccc23)c1 (centres unmarked) [Compound 621]
Second: O=C1C2=C(NC(=S)NC2c2ccccc2O)c2ccccc21 (centres unmarked) [Compound 15]
The IC50 of the first is higher: 500 to 1000 nM for the first, less than 100 nM for the second. The second is the more potent here.

Same assay, conditions: read-out: Activity (IC50)

`C=CCOc1cccc(C2NC(=S)NC3=C2C(=O)c2ccccc23)c1` (centres unmarked) [Compound 305] and `CCOc1cccc(C2NC(=S)NC3=C2C(=O)c2ccccc23)c1` (centres unmarked) [Compound 310] cannot be ordered by IC50: less than 100 nM for the first, less than 100 nM for the second.

Compared with `CN1C(=S)NC(c2cccc(C#N)c2)C2=C1c1ccccc1C2=O` (centres unmarked) [Compound 308], `CN1C(=O)NC(c2cccc(C#N)c2)C2=C1c1ccccc1C2=O` (centres unmarked) [Compound 644] is higher in IC50: less than 100 nM for the first, greater than 1000 nM for the second.

First: C=CCOc1cccc(C2NC(=O)N(Cc3ccccn3)C3=C2C(=O)c2ccccc23)c1 (centres unmarked) [Compound 636]
Second: C=CCOc1cccc(C2NC(=O)N(Cc3ccc(F)cc3)C3=C2C(=O)c2ccccc23)c1 (centres unmarked) [Compound 633]
The IC50 of the first is higher: 100 to 500 nM for the first, less than 100 nM for the second.

First: CCCCCOc1cccc(C2NC(=O)NC3=C2C(=O)c2ccccc23)c1 (centres unmarked) [Compound 460]
Second: CCCCOc1cccc(C2NC(=O)NC3=C2C(=O)c2ccccc23)c1 (centres unmarked) [Compound 408]
The IC50 of the first is higher: greater than 1000 nM for the first, less than 100 nM for the second. The second is the more potent here.

`O=C1NC2=C(C(=O)c3ccccc32)C(c2ccccc2F)N1` (centres unmarked) [Compound 447] and `O=C1NC2=C(C(=O)c3ccccc32)C(c2cccc(Cl)c2Cl)N1` (centres unmarked) [Compound 446] cannot be ordered by IC50: greater than 1000 nM for the first, greater than 1000 nM for the second.

`C=CCOc1cccc(C2NC(=S)N(C)C3=C2C(=O)c2ccccc23)c1` (centres unmarked) [Compound 306] and `C=CCOc1cccc(C2NC(=O)N(C)C3=C2C(=O)c2ccccc23)c1` (centres unmarked) [Compound 629] cannot be ordered by IC50: less than 100 nM for the first, less than 100 nM for the second.

First: O=C1NC2=C(C(=O)c3ccccc32)C(c2cccc(OCC3CCC3)c2)N1 (centres unmarked) [Compound 461]
Second: O=C1NC2=C(C(=O)c3ccccc32)C(c2cccc(OCC3CC3)c2)N1 (centres unmarked) [Compound 422]
The IC50 of the first is higher: greater than 1000 nM for the first, 100 to 500 nM for the second. The second is the more potent here.

Compared with `CN1C(=S)N(C)C(c2ccccc2)C2=C1c1ccccc1C2=O` (centres unmarked) [Compound 304], `COc1cccc(C2NC(=O)N(C)C3=C2C(=O)c2ccccc23)c1` (centres unmarked) [Compound 622] is lower in IC50: greater than 1000 nM for the first, 100 to 500 nM for the second.

`N#CN=C1NC2=C(C(=O)c3ccccc32)C(c2cccc(OCC3CC3)c2)N1` (centres unmarked) [Compound 951] and `C=CCOc1cccc(C2NC(=NC#N)NC3=C2C(=O)c2ccccc23)c1` (centres unmarked) [Compound 950] cannot be ordered by IC50: greater than 1000 nM for the first, greater than 1000 nM for the second.

`C=CCOc1ccc(Cl)c(C2NC(=O)NC3=C2C(=O)c2ccccc23)c1` (centres unmarked) [Compound 637] and `C=CCOc1ccc(F)c(C2NC(=O)NC3=C2C(=O)c2ccccc23)c1` (centres unmarked) [Compound 417] fall in the same range of IC50: 100 to 500 nM for the first, 100 to 500 nM for the second.

First: CCOc1ccc(F)c(C2NC(=O)NC3=C2C(=O)c2ccccc23)c1F (centres unmarked) [Compound 420]
Second: C=CCOc1cccc(C2NC(=O)NC3=C2C(=O)c2ccccc23)c1F (centres unmarked) [Compound 401]
The IC50 of the first is higher: 100 to 500 nM for the first, less than 100 nM for the second. The second is the more potent here.

`CCOc1cccc(C2NC(=O)NC3=C2C(=O)c2ccccc23)c1` (centres unmarked) [Compound 412] and `COCCOc1cccc(C2NC(=O)NC3=C2C(=O)c2ccccc23)c1` (centres unmarked) [Compound 462] fall in the same range of IC50: 100 to 500 nM for the first, 100 to 500 nM for the second.

Compared with `C=CCOc1cccc(C2NC(=O)NC3=C2C(=O)c2ccccc23)c1C` (centres unmarked) [Compound 421], `C=CCOc1cccc(C2NC(=O)NC3=C2C(=O)c2ccccc23)c1Cl` (centres unmarked) [Compound 640] is lower in IC50: 100 to 500 nM for the first, less than 100 nM for the second. The second is the more potent here.

`COc1ccc(OC)c(C2NC(=O)NC3=C2C(=O)c2ccccc23)c1` (centres unmarked) [Compound 441] and `COc1ccc(Cl)c(C2NC(=O)NC3=C2C(=O)c2ccccc23)c1` (centres unmarked) [Compound 429] cannot be ordered by IC50: greater than 1000 nM for the first, greater than 1000 nM for the second.

First: CCCOc1cccc(C2NC(=O)NC3=C2C(=O)c2cccnc23)c1 (centres unmarked) [Compound 904]
Second: CCCC(=O)c1cccc(C2NC(=O)NC3=C2C(=O)c2cccnc23)c1 (centres unmarked) [Compound 909]
The IC50 of the first is lower: less than 100 nM for the first, 100 to 500 nM for the second. The first is the more potent here.

First: Cc1ccc2c(c1)C(=O)C1=C2NC(=O)NC1c1cc(O)ccc1Br (centres unmarked) [Compound 107]
Second: O=C1NC2=C(C(=O)c3cc(Cl)ccc32)C(c2cc(O)ccc2Br)N1 (centres unmarked) [Compound 103]
The IC50 of the first is lower: 500 to 1000 nM for the first, greater than 1000 nM for the second. The first is the more potent here.

First: O=C1NC2=C(C(=O)c3ccccc32)C(c2cc(O)ccc2Br)N1 (centres unmarked) [Compound 102]
Second: COc1cccc(C2NC(=O)NC3=C2C(=O)c2ccccc23)c1OC (centres unmarked) [Compound 438]
The IC50 of the first is lower: 100 to 500 nM for the first, greater than 1000 nM for the second. The first is the more potent here.

First: COCc1cccc(C2NC(=O)NC3=C2C(=O)c2ccccc23)c1 (centres unmarked) [Compound 453]
Second: CCCCc1cccc(C2NC(=O)NC3=C2C(=O)c2ccccc23)c1 (centres unmarked) [Compound 427]
The IC50 of the first is higher: greater than 1000 nM for the first, 500 to 1000 nM for the second. The second is the more potent here.

First: O=C1NC2=C(C(=O)c3ccccc32)C(c2cccc(OC(F)F)c2)N1 (centres unmarked) [Compound 414]
Second: O=C1NC2=C(C(=O)c3ccccc32)C(c2cccc(OC(F)(F)C(F)F)c2)N1 (centres unmarked) [Compound 451]
The IC50 of the first is lower: 100 to 500 nM for the first, greater than 1000 nM for the second.

Going from `C=CCOc1cccc(C2NC(=O)N(CC(=O)OCC)C3=C2C(=O)c2ccccc23)c1` (centres unmarked) [Compound 631] to `CCOc1cccc(C2NC(=O)N(CC(=O)O)C3=C2C(=O)c2ccccc23)c1` (centres unmarked) [Compound 610], the IC50 rises from less than 100 nM to greater than 1000 nM. The first is the more potent here.

`C=CCOc1cc(Cl)cc(C2NC(=O)NC3=C2C(=O)c2ccccc23)c1` (centres unmarked) [Compound 406] and `C=CCOc1cc(F)cc(C2NC(=O)NC3=C2C(=O)c2ccccc23)c1` (centres unmarked) [Compound 403] cannot be ordered by IC50: less than 100 nM for the first, less than 100 nM for the second.

`CN1C(=NC#N)NC2=C(C(=O)c3ccccc32)C1c1cccc(OCC2CC2)c1` (centres unmarked) [Compound 952] and `CCCOc1cccc(C2NC(=NC#N)NC3=C2C(=O)c2ccccc23)c1` (centres unmarked) [Compound 960] cannot be ordered by IC50: greater than 1000 nM for the first, greater than 1000 nM for the second.

First: CCOc1cccc(C2NC(=O)N(Cc3cccnc3)C3=C2C(=O)c2ccccc23)c1 (centres unmarked) [Compound 612]
Second: CCOc1cccc(C2NC(=O)N(Cc3ccccc3)C3=C2C(=O)c2ccccc23)c1 (centres unmarked) [Compound 606]
The IC50 of the first is higher: 100 to 500 nM for the first, less than 100 nM for the second.

`N#CN=C1NC2=C(C(=O)c3c(Cl)cccc32)C(c2cccc(OCC3CC3)c2)N1` (centres unmarked) [Compound 954] and `CC(C)COc1cccc(C2NC(=NC#N)NC3=C2C(=O)c2ccccc23)c1` (centres unmarked) [Compound 959] cannot be ordered by IC50: greater than 1000 nM for the first, greater than 1000 nM for the second.

Going from `N#CN=C1NC2=C(C(=O)c3ccccc32)C(c2cccc(C#N)c2)N1` (centres unmarked) [Compound 955] to `N#Cc1cccc(C2NC(=S)NC3=C2C(=O)c2ccccc23)c1` (centres unmarked) [Compound 307], the IC50 falls from greater than 1000 nM to less than 100 nM.

`O=C1NC2=C(C(=O)c3ccccc32)C(c2cccc3[nH]c(=O)oc23)N1` (centres unmarked) [Compound 505] and `O=C1NC2=C(C(=O)c3ccccc32)C(c2cccc3c2OC(F)(F)O3)N1` (centres unmarked) [Compound 440] cannot be ordered by IC50: greater than 1000 nM for the first, greater than 1000 nM for the second.

`C=CCOc1ccc(Cl)c(C2NC(=O)N(C)C3=C2C(=O)c2ccccc23)c1` (centres unmarked) [Compound 638] and `C=CCOc1cccc(C2NC(=O)N(C)C3=C2C(=O)c2ccccc23)c1Cl` (centres unmarked) [Compound 639] cannot be ordered by IC50: less than 100 nM for the first, less than 100 nM for the second.

First: O=C1NC2=C(C(=O)c3ccccc32)C(c2cccc(OCC(F)(F)F)c2)N1 (centres unmarked) [Compound 413]
Second: O=C1NC2=C(C(=O)c3ccccc32)C(c2cccc(OC(=O)C3CC3)c2)N1 (centres unmarked) [Compound 459]
The IC50 of the first is lower: 100 to 500 nM for the first, greater than 1000 nM for the second. The first is the more potent here.

`COc1cccc(C2NC(=O)N(CCN(C)C)C3=C2C(=O)c2ccccc23)c1` (centres unmarked) [Compound 628] and `COc1cccc(C2NC(=O)N(CCO)C3=C2C(=O)c2ccccc23)c1` (centres unmarked) [Compound 626] cannot be ordered by IC50: greater than 1000 nM for the first, greater than 1000 nM for the second.

First: COCCN1C(=O)NC(c2cccc(OC)c2)C2=C1c1ccccc1C2=O (centres unmarked) [Compound 627]
Second: CCOc1cccc(C2NC(=O)N(CC)C3=C2C(=O)c2ccccc23)c1 (centres unmarked) [Compound 604]
The IC50 of the first is higher: 100 to 500 nM for the first, less than 100 nM for the second. The second is the more potent here.

`C=CCOc1cccc(C2NC(=O)NC3=C2C(=O)c2ccccc23)c1C(F)(F)F` (centres unmarked) [Compound 642] and `CN(C)c1cccc(C2NC(=O)NC3=C2C(=O)c2ccccc23)c1` (centres unmarked) [Compound 445] cannot be ordered by IC50: greater than 1000 nM for the first, greater than 1000 nM for the second.

Compared with `CCCOc1cccc(C2NC(=O)N(Cc3ccccc3)C3=C2C(=O)c2ccccc23)c1` (centres unmarked) [Compound 647], `CCOc1cccc(C2NC(=O)N(Cc3ccc(F)cc3)C3=C2C(=O)c2ccccc23)c1` (centres unmarked) [Compound 607] is higher in IC50: less than 100 nM for the first, 100 to 500 nM for the second.

`O=C1NC2=C(C(=O)c3ccccc32)C(c2cccnc2)N1` (centres unmarked) [Compound 501] and `COc1cc(OC)cc(C2NC(=O)NC3=C2C(=O)c2ccccc23)c1` (centres unmarked) [Compound 458] cannot be ordered by IC50: greater than 1000 nM for the first, greater than 1000 nM for the second.

For `CCCOc1cccc(C2NC(=O)N(C)C3=C2C(=O)c2ccccc23)c1` (centres unmarked) [Compound 645], the IC50 was less than 100 nM.
